Measured values: patent publication US8058243B2, “Method for treating a brain cancer with ifenprodil” (HSC Research and Development Limited Partnership, priority 2006, dated 2011)
Read-outs that look alike come from different tables or passages of the source.

Test system: murine neural precursor cells (neurosphere cultures)
Experiment: HTS of LOPAC library against secondary neurosphere cultures, MTT proliferation assay at 3 μM, day 7 (z score, P value)
Assay type: cell-based, mouse
[1] = LOPAC library screen, 3 μM, MTT, secondary neurosphere cultures, day 7
[2] = LOPAC primary screen, neurosphere MTT proliferation, 3 μM, day 7
[3] = primary LOPAC screen, 3 μM, MTT, neurosphere proliferation
[4] = yes/no: significantly inhibited neurosphere proliferation in the primary screen
[5] = LOPAC library screen at 3 μM, MTT, secondary neurosphere cultures, screened in singlets
[6] = yes/no: significantly inhibited neurosphere proliferation in primary screen
[7] = yes = significantly inhibited neurosphere proliferation (P<0.01) in the primary screen
[8] = LOPAC screen, neurosphere MTT proliferation, 3 μM, day 7
[9] = yes/no: significantly inhibited neurosphere proliferation (P<0.01) in primary screen
[10] = LOPAC library screen, 3 μM, MTT, neurosphere cultures
[11] = yes/no: significantly inhibited neurosphere proliferation (P<0.01) in the primary screen

Cc1cn([C@H]2C[C@H](N=[N+]=[N-])[C@@H](CO)O2)c(=O)[nH]c1=O [3′-Azido-3′-deoxythymidine]
Activity: yes
Z Score [1]: −5.023
Z score [2]: −5.023

Cl.NCCc1ccc(S(=O)(=O)F)cc1 [4-(2-Aminoethyl)benzenesulfonyl fluoride hydrochloride]
Z Score: 0.3634
Z score [3]: 0.363
Activity [4]: no

Nc1ccc2c3c(cccc13)C(=O)NC2=O [4-Amino-1,8-naphthalimide]
Z Score [5]: 1.875
Z score [2]: 1.875
Activity [6]: no

Cl.Cl.N=C(N)c1ccc(N)cc1 [4-Aminobenzamidine dihydrochloride]
Z Score: −1.287
Z score [2]: −1.287
Activity [7]: no

Nc1ccncc1 [4-Aminopyridine]
Z Score [1]: −1.516
Z score [2]: −1.516
Activity [6]: no

C[C@]12CCC(=O)C(O)=C1CC[C@@H]1[C@@H]2CC[C@]2(C)C(=O)CC[C@@H]12 [4-Androsten-4-ol-3,17-dione]
Z Score: 0.1944
Z score [3]: 0.194
Activity [4]: no

C[C@]12CCC(=O)C=C1CC[C@@H]1[C@@H]2CC[C@]2(C)C(=O)CC[C@@H]12 [4-Androstene-3,17-dione]
Z Score: −0.6917
Z score [3]: −0.692
Activity [4]: no

O=C(O)c1cc[c]([Hg][Cl])cc1 [4-Chloromercuribenzoic acid]
Z Score: −0.03193
Z score [8]: −0.032
Activity [9]: no

C[N+]1(C)CCC(OC(=O)C(c2ccccc2)c2ccccc2)CC1.[I-] [4-DAMP methiodide]
Z Score [10]: 0.3311
Z score [8]: 0.331
Activity [9]: no

Cl.O=C(OC1CCN(CCCl)CC1)C(c1ccccc1)c1ccccc1 [4-Diphenylacetoxy-N-(2-chloroethyl)piperidine hydrochloride]
Z Score: 0.8645
Z score [2]: 0.864
Activity [9]: no

COc1cc(CC(=O)O)ccc1O [4-Hydroxy-3-methoxyphenylacetic acid]
Z Score: −0.5673
Z score [2]: −0.567
Activity [9]: no

NNC(=O)c1ccc(O)cc1 [4-Hydroxybenzhydrazide]
Z Score: −0.7888
Z score [2]: −0.789
Activity [9]: no

Cl.NCCc1ccc(O)cc1 [4-Hydroxyphenethylamine hydrochloride]
Z Score: 1.03
Z score [3]: 1.030
Activity [4]: no

O=C(O)C=Cc1c[nH]cn1 [4-Imidazoleacrylic acid]
Z Score: −0.2635
Z score [3]: −0.264
Activity [4]: no

Cl.OCc1c[nH]cn1 [4-Imidazolemethanol hydrochloride]
Z Score: −2.077
Z score [2]: −2.077
Activity [9]: no

Cc1cn[nH]c1.Cl [4-Methylpyrazole hydrochloride]
Z Score: 1.042
Z score [2]: 1.042
Activity [7]: no

N#Cc1c(-c2ccccc2)no[n+]1[O-] [4-Phenyl-3-furoxancarbonitrile]
Z Score (168 h, 3 µM): 0.9313
Z score (168 h, 3 µM): 0.931
Activity [6]: no

CC1(C)CCC=[N+]1[O-] [5,5-Dimethyl-1-pyrroline-N-oxide]
Z Score (168 h, 3 µM): −1.666
Z score (168 h, 3 µM): −1.666
Activity [9]: no

O=C1NC(=O)C(c2ccccc2)(c2ccccc2)N1 [5,5-Diphenylhydantoin]
Z Score [10]: 1.383
Z score [8]: 1.383
Activity [9]: no

O=C(O)c1cc(=O)c2c(Cl)cc(Cl)cc2[nH]1 [5,7-Dichlorokynurenic acid]
Z Score [10]: 0.9011
Z score [2]: 0.901
Activity [9]: no

CN(C)c1nc(N)c(C(=O)NC(=N)N)nc1Cl.Cl [5-(N,N-Dimethyl)amiloride hydrochloride]
Z Score: 2.396
Z score [3]: 2.396
Activity [4]: no

N=C(N)NC(=O)c1nc(Cl)c(N2CCCCCC2)nc1N [5-(N,N-hexamethylene)amiloride]
Z Score [10]: 0.03855
Z score [3]: 0.039
Activity [4]: no

CCN(c1nc(N)c(C(=O)N=C(N)N)nc1Cl)C(C)C [5-(N-Ethyl-N-isopropyl)amiloride]
Z Score: −0.2886
Z score [3]: −0.289
Activity [4]: no

CC(C)CN(C)c1nc(N)c(C(=O)N=C(N)N)nc1Cl [5-(N-Methyl-N-isobutyl)amiloride]
Z Score [5]: 1.871
Z score [3]: 1.871
Activity [4]: no

Cl.NCCCCC(=O)O [5-Aminovaleric acid hydrochloride]
Z Score (168 h, 3 µM): −1.67
Z score (168 h, 3 µM): −1.670
Activity [6]: no

O=c1[nH]c(=O)n([C@H]2C[C@H](O)[C@@H](CO)O2)cc1Br [5-Bromo-2′-deoxyuridine]
Z score [8]: 2.580
Activity [9]: no

NCCc1c[nH]c2ccc(C(N)=O)cc12.O=C(O)/C=C\C(=O)O [5-Carboxamidotryptamine maleate]
Z Score [5]: 1.667
Z score [8]: 1.667
Activity [9]: no

O=C(O)c1cc2cc(F)ccc2[nH]1 [5-Fluoroindole-2-carboxylic acid]
Z Score: −0.007549
Z score: −0.008

O=c1[nH]cc(F)c(=O)[nH]1 [5-Fluorouracil]
Z Score [1]: −7.749
Z score [2]: −7.749
Activity [7]: yes

N[C@@H](Cc1c[nH]c2ccc(O)cc12)C(=O)O [5-Hydroxy-L-tryptophan]
Z Score [10]: 0.03011
Z score [2]: 0.030
Activity [9]: no

O=C(O)Cc1c[nH]c2ccc(O)cc12 [5-Hydroxyindolacetic acid]
Z Score [1]: −1.301
Z score [2]: −1.301
Activity [9]: no

O=C(O)c1cc([N+](=O)[O-])ccc1NCCCc1ccccc1 [5-Nitro-2-(3-phenylpropylamino)benzoic acid]
Z Score (168 h, 3 µM): −0.7343
Z score (168 h, 3 µM): −0.734
Activity [7]: no

Nc1ncn([C@@H]2O[C@H](CO)[C@@H](O)[C@H]2O)c(=O)n1 [5-azacytidine]
Z Score [1]: −1.398
Z score [3]: −1.398
Activity [4]: no

C[C@H]1O[C@@H](n2cc(F)c(=O)[nH]c2=O)[C@H](O)[C@@H]1O [5-fluoro-5′-deoxyuridine]
Z Score [10]: 0.3787
Z score [2]: 0.379
Activity [9]: no

CCCCCC(O)CCCC(=O)O.[Na] (stereo not drawn) [5-hydroxydecanoic acid sodium]
Z Score (168 h, 3 µM): 0.2332
Z score (168 h, 3 µM): 0.233
Activity [9]: no

C[C@]12CC[C@@H](O)C[C@@H]1CC[C@@H]1[C@@H]2CC[C@]2(C)[C@@H](O)CC[C@@H]12 [5alpha-Androstane-3alpha,17beta-diol]
Z score [3]: −0.381
Activity [4]: no

C[C@]12CC[C@@H](O)C[C@@H]1CC[C@@H]1[C@@H]2CC[C@]2(C)[C@@H](O)CC[C@@H]12 [5alpha-Androstane-3alpha, 17beta-diol]
Z Score: −0.3811

CC(=O)[C@H]1CC[C@H]2[C@@H]3CC[C@H]4C[C@H](O)CC[C@]4(C)[C@H]3C(=O)C[C@]12C [5alpha-Pregnan-3alpha-ol-11,20-dione]
Z Score: −0.8078
Z score [2]: −0.808

CC(=O)[C@H]1CC[C@H]2[C@@H]3CC[C@H]4C[C@H](O)CC[C@]4(C)[C@H]3CC[C@]12C [5alpha-Pregnan-3alpha-ol-20-one]
Z Score: 0.9335
Z score [2]: 0.934
Activity [6]: no

Nc1ncnc2c1ncn2[C@@H]1O[C@H](C(=O)NC2CC2)[C@@H](O)[C@H]1O [5′-(N-Cyclopropyl)carboxamidoadenosine]
Z Score: −1.701
Z score [8]: −1.701
Activity [9]: no

CCNC(=O)[C@H]1O[C@@H](n2cnc3c(N)ncnc32)[C@H](O)[C@@H]1O [5′-N-Ethylcarboxamidoadenosine]
Z Score [1]: −2.587
Z score [2]: −2.587
Activity [11]: yes

CNC(=O)[C@H]1O[C@@H](n2cnc3c(N)ncnc32)[C@H](O)[C@@H]1O [5′-N-Methyl carboxamidoadenosine]
Z Score: −2.582
Z score [2]: −2.582
Activity [11]: yes

O=c1[nH]c2ccccc2c2ccccc12 [6(5H)-Phenanthridinone]
Z Score (168 h, 3 µM): 0.6765
Z score (168 h, 3 µM): 0.677
Activity [6]: no

Br.NC1CCc2cc(O)c(O)cc2C1 (stereo not drawn) [6,7-ADTN hydrobromide]
Z Score [10]: 0.357
Z score [8]: 0.357
Activity [9]: no

O=C1N=c2cc(Cl)c(Cl)cc2=NC1=O [6,7-Dichloroquinoxaline-2,3-dione]
Z Score [10]: 0.1274
Z score [8]: 0.127
Activity [9]: no

NCCCCCC(=O)O [6-Aminohexanoic acid]
Activity: no
Z Score: −2.179
Z score: −2.179

COc1cc2c(CCNC(C)=O)c[nH]c2cc1Cl [6-Chloromelatonin]
Z Score [1]: −1.659
Z score [8]: −1.659
Activity [9]: no

Cl.NCC(O)c1cc(O)c(O)cc1F (stereo not drawn) [6-Fluoronorepinephrine hydrochloride]
Z Score: −1.168
Z score [8]: −1.168
Activity [9]: no

COc1cc2c(CCNC(C)=O)c[nH]c2cc1O [6-Hydroxymelatonin]
Z Score [10]: 0.3767
Z score [2]: 0.377
Activity [9]: no

Cc1cccc(C#Cc2ccccc2)n1.Cl [6-Methyl-2-(phenylethynyl)pyridine hydrochloride]
Z Score (168 h, 3 µM): 0.09366
Z score (168 h, 3 µM): 0.094
Activity [7]: no

O=Nc1ccc2oc(=O)ccc2c1 [6-Nitroso-1,2-beazopyrone]
Z Score: 0.01132

O=Nc1ccc2oc(=O)ccc2c1 [6-Nitroso-1,2-benzopyrone]
Z score [2]: 0.011
Activity [7]: no
